For the test, the target named is PIK3CA (human) (UniProt P42336). Description: Assessment of PI3KCA Kinase Activity.
Sequence of PIK3CA (human) (P42336 whole entry, looked up): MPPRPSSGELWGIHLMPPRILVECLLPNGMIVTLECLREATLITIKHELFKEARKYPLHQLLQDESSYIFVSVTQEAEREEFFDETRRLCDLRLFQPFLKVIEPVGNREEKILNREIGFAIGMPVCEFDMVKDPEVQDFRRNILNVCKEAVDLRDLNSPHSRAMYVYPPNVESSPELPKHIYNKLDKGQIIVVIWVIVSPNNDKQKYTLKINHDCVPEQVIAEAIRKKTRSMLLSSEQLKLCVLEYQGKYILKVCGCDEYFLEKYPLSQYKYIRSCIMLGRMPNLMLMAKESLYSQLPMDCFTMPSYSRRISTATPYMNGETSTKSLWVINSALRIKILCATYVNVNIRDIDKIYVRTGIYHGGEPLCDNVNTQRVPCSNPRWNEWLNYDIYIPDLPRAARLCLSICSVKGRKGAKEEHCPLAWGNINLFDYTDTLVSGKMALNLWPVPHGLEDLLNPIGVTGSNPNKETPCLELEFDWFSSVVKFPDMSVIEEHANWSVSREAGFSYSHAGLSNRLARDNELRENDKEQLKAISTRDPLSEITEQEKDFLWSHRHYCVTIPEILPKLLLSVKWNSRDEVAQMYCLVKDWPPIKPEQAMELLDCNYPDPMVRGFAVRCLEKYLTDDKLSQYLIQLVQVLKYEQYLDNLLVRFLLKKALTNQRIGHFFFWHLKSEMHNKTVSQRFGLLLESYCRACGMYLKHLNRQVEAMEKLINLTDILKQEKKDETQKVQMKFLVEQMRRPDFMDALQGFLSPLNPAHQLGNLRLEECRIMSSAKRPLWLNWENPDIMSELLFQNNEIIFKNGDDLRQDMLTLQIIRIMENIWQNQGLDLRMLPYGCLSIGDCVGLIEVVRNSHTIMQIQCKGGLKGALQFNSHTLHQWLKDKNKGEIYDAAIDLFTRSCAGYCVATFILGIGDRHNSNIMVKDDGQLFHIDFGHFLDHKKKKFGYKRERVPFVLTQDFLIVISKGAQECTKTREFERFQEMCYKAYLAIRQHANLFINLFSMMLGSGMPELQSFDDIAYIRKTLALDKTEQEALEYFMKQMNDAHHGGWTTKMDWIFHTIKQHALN
For the compound `CC(=O)Nc1cc(-c2nc(-c3ccc(Cl)cc3Cl)c(-c3nc(C#N)c[nH]3)s2)ccn1`, the IC50 (usually the midpoint of a concentration-inhibition curve) was 100 to 1000 nM.

With `CCOc1nc(-c2ccnc(NC(=O)CCc3ccccc3)c2)sc1-c1nnc[nH]1`, the IC50 was less than 100 nM.

As to `Cc1nn2ccc(OCCN3CCC(F)(F)CC3)cc2c1-c1nc(-c2ccccc2)c(-c2nc[nH]n2)s1`, the IC50 was less than 100 nM.

With `Cc1nn2ccc(OCCNC(=O)C(C)(C)N)cc2c1-c1nc(-c2ccccc2)c(-c2nc[nH]n2)s1`, the IC50 is less than 100 nM.

`COc1cccc(F)c1-c1nc(-c2c(C)nn3ccc(OC4CCN(C(C)=O)CC4)cc23)sc1-c1nc[nH]n1` gave an IC50 of less than 100 nM.

As for `CC(=O)Nc1cc(-c2nc(-c3cc(CO)ccc3Cl)c(-c3ncc[nH]3)s2)ccn1`, the IC50 is less than 100 nM.

Consider `Cc1nc2ccc(CN3CCNCC3)cn2c1-c1nc(-c2ccccc2)c(-c2nnc[nH]2)s1`, for which the IC50 was less than 100 nM.

With `Cc1nn2ccccc2c1-c1nc(-c2ccc(F)cc2F)c(-c2nc[nH]n2)s1`, the IC50 was less than 100 nM.

In turn, `CCOc1nc(-c2ccnc(NC(=O)c3cccc(OC)c3)c2)sc1-c1nnc[nH]1` showed an IC50 of 100 to 1000 nM.

With `Cc1nn2ccccc2c1-c1nc(-c2ccc(CO)cc2)c(-c2nc[nH]n2)s1`, the IC50 was less than 100 nM.

`CNc1cc(-c2sc(-c3nccn3C)c(-c3ccc(Cl)cc3Cl)c2C#N)ccn1`: the IC50 was in the range of 100 to 1000 nM.

On to `Cc1nn2ccccc2c1-c1nc(-c2ccc(F)cc2)c(-c2nnc[nH]2)s1`, for which the IC50 is less than 100 nM.

In turn, `Clc1ccc(-c2cc(-c3ccnc4[nH]ccc34)sc2-c2ncc[nH]2)c(Cl)c1` gave an IC50 of less than 100 nM.

`COc1cccc(F)c1-c1ccc2nc(C)c(-c3nc(-c4ccccc4)c(-c4nc[nH]n4)s3)n2c1`: the IC50 is 100 to 1000 nM.

Turning to `Cc1nc2ccc(CN(CCN)Cc3ccccc3)cn2c1-c1nc(-c2ccccc2)c(-c2nnc[nH]2)s1`, the IC50 was less than 100 nM.

For the compound `N#Cc1c(-c2ccnc(NC(=O)C3CC3)c2)sc(-c2ccn[nH]2)c1-c1ccc(Cl)cc1Cl`, the IC50 was less than 100 nM.

Take `N#Cc1c(-c2ccnc(NC(=O)CCc3ccccc3)c2)sc(-c2nnc[nH]2)c1-c1ccc(Cl)cc1Cl`: the IC50 was in the range of 100 to 1000 nM.

In the case of `COc1ccc(-c2nc(-c3ccnc(NC(C)=O)c3)sc2-c2ncc[nH]2)cc1`, the IC50 was in the range of 100 to 1000 nM.

`Cc1nn2ccc(OCCNC(=O)C(C)(C)C)cc2c1-c1nc(-c2ccccc2)c(-c2nc[nH]n2)s1` showed an IC50 of less than 100 nM.

Compound `CCOc1nc(-c2ccnc(NC(=O)Cc3ccccc3)c2)sc1-c1nnc[nH]1` yielded an IC50 of 100 to 1000 nM.

`Cc1nn2ccccc2c1-c1nc(-c2cccc(OCc3ccccc3)c2)c(-c2nc[nH]n2)s1`: the IC50 is 100 to 1000 nM.

The compound `Cc1nn2ccc(OCCN3CCN(C)C(=O)C3)cc2c1-c1nc(-c2ccccc2)c(-c2nc[nH]n2)s1` returned an IC50 of less than 100 nM.

The compound `COc1cccc(F)c1-c1nc(-c2c(C)nn3ccc(OCCN4CCN(S(C)(=O)=O)CC4)cc23)sc1-c1nc[nH]n1` displayed an IC50 of less than 100 nM.

With `CCOc1nc(-c2ccnc(NC(=O)c3ccc(F)cc3)c2)sc1-c1nnc[nH]1`, the IC50 was in the range of 100 to 1000 nM.

In the case of `CC(=O)Nc1cc(-c2nc(-c3ccc(Cl)cc3Cl)c(-c3nc(C)c(C)[nH]3)s2)ccn1`, the IC50 is 100 to 1000 nM.

As for `Cc1nn2ccccc2c1-c1nc(-c2cnn(CCN3CCOCC3)c2)c(-c2nc[nH]n2)s1`, the IC50 lay within 100 to 1000 nM.

As for `CC(C)(C)Nc1nc2c(-c3cc(-c4ccc(Cl)cc4Cl)c(-c4ncc[nH]4)s3)ncnc2s1`, the IC50 is less than 100 nM.

Regarding `COc1cncc(-c2nc(-c3ccnc(NC(C)=O)c3)sc2-c2ncc[nH]2)c1`, the IC50 lay in the range of 100 to 1000 nM.

`O=C(CCN1CCOCC1)Nc1cc(-c2nc(-c3ccccc3)c(-c3nnc[nH]3)s2)ccn1` displayed an IC50 of 100 to 1000 nM.

The compound `Cc1nn2ccccc2c1-c1nc(-c2ccc(N3CCOCC3)nc2)c(-c2nc[nH]n2)s1` came in with an IC50 of 100 to 1000 nM.

Take `CC(=O)Nc1cc(-c2nc(-c3cccc(C)c3)c(-c3ncc[nH]3)s2)ccn1`: the IC50 was in the range of 100 to 1000 nM.

In turn, `COc1cccc(Cl)c1-c1nc(-c2c(C)nn3ccccc23)sc1-c1nc[nH]n1` displayed an IC50 of less than 100 nM.

In turn, `Cc1nn2ccccc2c1-c1nc(N(C)c2ccc(Cl)cc2)c(-c2nnc[nH]2)s1` displayed an IC50 of less than 100 nM.

In the case of `Cc1nn2ccsc2c1-c1nc(-c2ccccc2)c(-c2nnc[nH]2)s1`, the IC50 was less than 100 nM.

`COC(=O)c1cnc(-c2sc(-c3ccnc(NC(C)=O)c3)c(C#N)c2-c2ccc(Cl)cc2Cl)[nH]1` yielded an IC50 of 100 to 1000 nM.

Consider `CC(=O)Nc1cc(-c2sc(-c3cnc[nH]3)c(-c3ccc(Cl)cc3Cl)c2C#N)ccn1`, for which the IC50 was less than 100 nM.

Regarding `CCNc1cc(-c2nc(-c3cc(CCN)ccc3Cl)c(-c3ncc[nH]3)s2)ccn1`, the IC50 lay within 100 to 1000 nM.

Take `CC(=O)Nc1cc(-c2sc(-c3nccn3C)c(-c3ccc(Cl)cc3Cl)c2C#N)ccn1`: the IC50 fell in the range of 100 to 1000 nM.

`N#Cc1c(-c2ccnc(NC(N)=O)c2)sc(-c2ccn[nH]2)c1-c1ccc(Cl)cc1Cl` registered an IC50 of less than 100 nM.

Compound `CC(=O)N1CCN(CCOc2ccn3nc(C)c(-c4nc(-c5ccccc5)c(-c5nc[nH]n5)s4)c3c2)CC1` displayed an IC50 of less than 100 nM.

`Cc1nn2ccccc2c1-c1nc(-c2cccs2)c(-c2nc[nH]n2)s1`: the IC50 is less than 100 nM.

Regarding `COC(=O)Nc1cc(-c2nc(-c3ccc(Cl)cc3Cl)c(-c3nnc(N)[nH]3)s2)ccn1`, the IC50 is less than 100 nM.

The compound `CC(=O)Nc1cc(-c2cc(-c3ccc(Cl)cc3Cl)c(-c3ncc[nH]3)s2)ccn1` returned an IC50 of less than 100 nM.

As for `Cc1nn2ccsc2c1-c1nc(-c2ccccc2)c(-c2cocn2)s1`, the IC50 is 100 to 1000 nM.

Compound `CC(=O)Nc1cc(-c2nc(-c3csc4ccccc34)c(-c3ncc[nH]3)s2)ccn1` had an IC50 of 100 to 1000 nM.

On to `Cc1nn2ccccc2c1-c1nc(C(C)(C)C)c(-c2nnc[nH]2)s1`, for which the IC50 was less than 100 nM.

As for `CCOc1nc(-c2ccnc(NC(=O)Cc3cccs3)c2)sc1-c1nnc[nH]1`, the IC50 lay in the range of 100 to 1000 nM.

`Cc1nn2ccccc2c1-c1nc(-c2ccccc2)c(-c2nnc[nH]2)s1` displayed an IC50 of less than 100 nM.

Regarding `CC(=O)Nc1cc(-c2nc(-c3ccccc3C)c(-c3ncc[nH]3)s2)ccn1`, the IC50 was less than 100 nM.

For `CCC(=O)Nc1cc(-c2nc(-c3ccc(Cl)cc3Cl)c(-c3ncc[nH]3)s2)ccn1`, the IC50 was less than 100 nM.

With `COC(=O)c1cccc(-c2nc(-c3c(C)nn4ccccc34)sc2-c2nc[nH]n2)c1`, the IC50 is 100 to 1000 nM.

`CCCC(=O)Nc1cc(-c2nc(OCC)c(-c3nnc[nH]3)s2)ccn1` displayed an IC50 of 100 to 1000 nM.

As to `N#Cc1c(-c2ccnc(NC(=O)CCl)c2)sc(-c2nnc[nH]2)c1-c1ccc(Cl)cc1Cl`, the IC50 was less than 100 nM.

With `CN(C)CC(=O)Nc1cc(-c2sc(-c3nnc[nH]3)c(-c3ccc(Cl)cc3Cl)c2C#N)ccn1`, the IC50 fell in the range of 100 to 1000 nM.

`Cc1nn2ccccc2c1-c1nc(-c2ccsc2)c(-c2nnc[nH]2)s1`: the IC50 was less than 100 nM.

The compound `COc1ccccc1-c1nc(-c2c(C)nn3ccccc23)sc1-c1nnc[nH]1` had an IC50 of less than 100 nM.

In the case of `CC(=O)Nc1cc(-c2nc(-c3ccc(Cl)c(Cl)c3)c(-c3ncc[nH]3)s2)ccn1`, the IC50 is less than 100 nM.

On to `COc1ccc(Cl)c(-c2nc(-c3ccnc(NC(C)=O)c3)sc2-c2ncc[nH]2)c1`, for which the IC50 was less than 100 nM.

The compound `CC(C)(C)OC(=O)Nc1cc(-c2sc(-c3ncc[nH]3)c(-c3ccc(Cl)cc3Cl)c2C#N)ccn1` had an IC50 of less than 100 nM.

Consider `N#Cc1c(-c2ccnc(F)c2)sc(C(N)=O)c1-c1ccc(Cl)cc1Cl`, for which the IC50 fell in the range of 100 to 1000 nM.

As for `O=C(Nc1cc(-c2nc(-c3ccc(Cl)cc3Cl)c(-c3ncc[nH]3)s2)ccn1)C1CC1`, the IC50 is less than 100 nM.

Regarding `CNc1nccc(-c2sc(-c3nnc[nH]3)c(-c3ccc(Cl)cc3Cl)c2C#N)n1`, the IC50 is less than 100 nM.

In the case of `CC(=O)Nc1cc(-c2sc(-c3nccn3Cc3ccccn3)c(-c3ccc(Cl)cc3Cl)c2C#N)ccn1`, the IC50 lay within 100 to 1000 nM.

With `CC(=O)NCCOc1ccn2nc(C)c(-c3nc(-c4ccccc4)c(-c4nc[nH]n4)s3)c2c1`, the IC50 is less than 100 nM.

`CC(=O)N1CCC(Oc2ccn3nc(C)c(-c4nc(-c5ccccc5)c(-c5nc[nH]n5)s4)c3c2)CC1`: the IC50 was less than 100 nM.

Compound `CC(=O)Nc1cc(-c2nc(-c3ccc(C(C)(C)C#N)cc3)c(-c3ncc[nH]3)s2)ccn1` showed an IC50 of 100 to 1000 nM.

As for `COC(=O)c1ccc(-c2nc(-c3ccnc(NC(C)=O)c3)sc2-c2ncc[nH]2)cc1`, the half-maximal inhibitory concentration (IC50) lay in the range of 100 to 1000 nM.

`Cc1nn2ccccc2c1-c1nc(-c2cn(C)nc2C(F)(F)F)c(-c2nc[nH]n2)s1` displayed an IC50 of less than 100 nM.

As to `N#Cc1c(-c2ccnc(NC(=O)CN)c2)sc(-c2nnc[nH]2)c1-c1ccc(Cl)cc1Cl`, the half-maximal inhibitory concentration (IC50) is less than 100 nM.

In turn, `O=C1CCc2c(-c3nc(-c4ccc(Cl)cc4Cl)c(-c4ncc[nH]4)s3)ccnc2N1` yielded an IC50 of less than 100 nM.

On to `CCOc1nc(-c2c(C)nn3ccccc23)sc1-c1nnc[nH]1`, for which the IC50 was less than 100 nM.

`CC(=O)Nc1cc(-c2nc(-c3ccsc3)c(-c3ncc[nH]3)s2)ccn1` came in with an IC50 of 100 to 1000 nM.

`CC(=O)Nc1cc(-c2sc(-c3ncc[nH]3)c(-c3ccc(Cl)cc3Cl)c2C#N)ccn1` yielded an IC50 of less than 100 nM.

In turn, `N#Cc1c(-c2ccnc(NC(=O)c3cnccn3)c2)sc(-c2nnc[nH]2)c1-c1ccc(Cl)cc1Cl` registered an IC50 of 100 to 1000 nM.

Consider `Cc1nc2ccc(CCN)cn2c1-c1nc(-c2ccccc2)c(-c2nnc[nH]2)s1`, for which the IC50 is less than 100 nM.

`CC(=O)Nc1cc(-c2nc(-c3ccc(C(F)(F)F)cc3)c(-c3ncc[nH]3)s2)ccn1` showed an IC50 of less than 100 nM.

In the case of `N#Cc1c(-c2ccnc(N)c2)sc(-c2ncc[nH]2)c1-c1ccc(Cl)cc1Cl`, the IC50 was less than 100 nM.

Consider `Cc1nc2ccc(C=O)cn2c1-c1nc(-c2ccccc2)c(-c2nnc[nH]2)s1`, for which the IC50 was less than 100 nM.

On to `CC(C)C(=O)Nc1cc(-c2sc(-c3ncc[nH]3)c(-c3ccc(Cl)cc3Cl)c2C#N)ccn1`, for which the IC50 is less than 100 nM.

Turning to `c1ccc(-c2nc(-c3ccnc4[nH]ccc34)sc2-c2nnc[nH]2)cc1`, the IC50 was less than 100 nM.

Consider `COc1cccc(F)c1-c1nc(-c2c(C)nn3ccccc23)sc1-c1nc[nH]n1`, for which the IC50 was less than 100 nM.

Compound `CC(=O)Nc1cc(-c2nc(-c3ccc(N)nc3)c(-c3ncc[nH]3)s2)ccn1` had an IC50 of 100 to 1000 nM.

Consider `CC(=O)Nc1cc(-c2nc(-c3ccc(O)cc3)c(-c3ncc[nH]3)s2)ccn1`, for which the IC50 is 100 to 1000 nM.

Turning to `Clc1ccc(-c2cc(-c3ccnc4sccc34)sc2-c2ncc[nH]2)c(Cl)c1`, the IC50 was less than 100 nM.
